From US12678438B2, “Treatment of cancer with CDK inhibitors” (THE TRUSTEES OF THE UNIVERSITY OF PENNSYLVANIA, priority 2019, dated 2026)

Tests used:
Type in all cases: cell-based, human
MED1-AR complex = test: Immunoprecipitation of endogenous MED1-AR complex; settings: VCaP and LNCaP nuclear extracts, 100 nM THZ1, 6 h
Protocol: For endogenous immunoprecipitation experiments, nuclear extracts were obtained from VCaP and LNCaP cells using NE-PER nuclear extraction kit (Thermo Scientific, 78835). Nuclear pellet was then lysed in IP buffer (20 mM Tris pH7.5, 150 mM NaCl, 1% Triton-X 100, Protease/Phosphatase Inhibitor) by sonication. Nuclear lysates (0.35-1.0 mg) were pre-cleaned by incubation with protein G Dynabeads (Life Technologies) for 1 h on a rotator at 4° C. 5 μg antibody was added to the pre-cleared lysates and incubated on a rotator at 4° C. overnight. Protein G Dynabeads were then added for 1 h. Beads were washed twice in IP buffer, containing 300 mM NaCl, and resuspended in 40 μL of 2× loading buffer and boiled at 95° C. for […] for separation of the protein and beads. Samples were then analyzed by SDS-PAGE and western blotting as described above.

VCaP cells = test: RNA-seq gene expression profiling; settings: 100 nM THZ1, 24 h
Protocol: (§1) RNA-seq libraries were constructed using the TruSeq sample Prep Kit V2 (Illumina) according to the manufacturer's instructions. Briefly, 1 μg of purified RNA was poly-A selected and fragmented with fragmentation enzyme. After first and second strand synthesis from a template of poly-A selected/fragmented RNA, other procedures from end-repair to PCR amplification were performed according to the instructions given in the protocol. Libraries were purified and validated for appropriate size on a 2100 Bioanalyzer DNA 1000 chip (Agilent Technologies, Inc.). The DNA library was quantitated using Qubit and normalized to 4 nM prior to pooling. Libraries were pooled in an equimolar fashion and diluted to a final concentration of 1.8 pM. Library pools were clustered and run on Nextseq500 platform (Illumina Inc.) with single-end reads of 75 bases.
(§2) Single-end sequencing reads were demultiplexed using Illumina bcl2fastq, quality checked using FASTQC (bioinformatics.babraham ac uk/projects/fastqc), and aligned to the GRCh37 (release 27) genome using the STAR v2.5.1 aligner, with default settings. The read statistics generated by STAR v2.5.1 was used to ensure that the aligned reads in all samples were over 90% of the total reads. The transcripts were assembled using cufflinks and the count and FPKM tables were computed using cuffnorm. Principal component analysis on the FPKM values was used to cluster the samples for further quality check.
(§3) Genes differentially expressed between any two sets of treatment were determined using DESeq2 (bioconductor.org/packages/release/bioc/html/DESeq.html), a statistical tool that employs shrinkage estimates to compute fold changes. In all our calculations, the raw RNA-seq read counts from biological duplicates, for each treatment condition, was used as the input for DESeq2.

DU145 cells = test: RNA-seq gene expression profiling; settings: DU145, 100 nM THZ1, 24 h
Protocol: as §1, §2, §3

LNCaP cells = test: RNA-seq gene expression profiling; settings: 100 nM THZ1, 24 h
Protocol: as §1, §2, §3

p-MED1 (p-T1457 MED1) = test: Immunoblot of p-MED1 in AR-positive PCa cell lines (VCaP, LNCaP, 22RV1)
Protocol: Cell lysates were prepared with RIPA buffer (Boston Bioproducts, BP-115DG)-10 mM Tris-HCl pH 7.5, 1 mM EDTA, 400 mM NaCl, 0.5% NP-40 and 1 mM DTT, supplemented with protease inhibitor cocktail (Pierce, A32965) and phosphatase inhibitor (Thermo, 1861280). For immunoblotting 200 μg total protein extract was boiled in sample buffer and 15-25 μg aliquots were separated by SDS-PAGE and transferred onto Polyvinylidene Difluoride membrane (GE Healthcare, IPVH00010). The membrane was incubated for one hour in blocking buffer [Tris-buffered saline, 0.1% Tween (TBS-T), 5% nonfat dry milk followed by overnight incubation on a rocker at 4° C. with the primary antibody. Following a wash with TBS-T, the blot was incubated with horseradish peroxidase-conjugated secondary antibody for 2 hrs on a rocker at room temperature. The blots were washed again and signals were visualized using enhanced chemiluminescence system as per manufacturer's protocol (GE Healthcare) or Kwik Quant Imager (Kindle Biosciences). Primary antibodies used in the immunoblotting (IB), immunoprecipitation (IP), and Chromatin Immunoprecipitation sequencing (ChIP-seq) assays are as follows: AR_IP, IB, ChIP-Seq (Millipore, 06-680); pS81-AR_IB (Millipore, 07-1375-EMD); RNA Pol II_IP, IB (Abcam, ab5408); ERG_IB (Abcam, a92513); PSA_IB (Dako, A0562); H3-acetyl K27_IP, IB, ChIP Seq (Abcam, ab32104) cPARP_IB (Cell Signaling Technology, 9541s); Cleaved caspase-3_IB (Cell Signaling Technology, 9664t); CDK7_IP, IB (Cell Signaling Technology, 2916s); CDK9_IP, IB (Cell Signaling Technology, 2316s); CDK12_IB (Cell Signaling Technology, 11973S); CDK13_IB (Sigma Cat. #ABE1860); Cyclin H_IB (Cell Signaling Technology, 2927T); HA_IP, IB (Cell Signaling Technology, 2367s); ERK1/2_IP, IB (Cell Signaling Technology, 9107s); phospho-ERK1/2_IB (Cell Signaling Technology, 9101s); phospho-Threonine_IB (Cell Signaling Technology, 9381s); PP2A alpha_IB (Abcam, ab32104); phospho-MED1_IB (Abcam, ab60950); Anti-GST_IB (Cell Signaling Technology, 2624); Anti-AKT_IB (Cell Signaling Technology, 9272); Anti-phosphoAKT_IB(Cell Signaling Technology, 4060); Anti-phospho-AR (Ser-515) _IB (Abeam, ab128250); Anti-RNA Pol 'LIB (Abeam, ab5408); Anti-phospho-pol II (Ser-5)_IB (Abeam, ab ab5095); Anti-phospho-CDK7 (Tlu-170) _IB (Millipore, ABS567); MED1_IP, IB, ChIP Seq (Bethyl, abA300-793A), Ki67_IHC (Cell Signaling Technology, 9661), and GAPDH (14C10), IB (Cell Signaling Technology, 3683s) for loading control.

[1] = tested on: DHT-induced AR target genes; test: RNA-seq of DHT-stimulated VCaP and LNCaP cells; settings: 10 nM DHT with 100 nM THZ1
Protocol: For AR signaling stimulation experiments, cells were plated in complete media at required confluency. After 24 h cells were washed with DPBS and cultured in RPMI/DMEM without Phenol Red (Invitrogen, 11835030) and 10% charcoal-dextran stripped FBS (Gemini BioProducts, 100-119) for 72 h. Cells were then stimulated with 10 nM DHT for the specific time points.
RNA-seq libraries were constructed using the TruSeq sample Prep Kit V2 (Illumina) according to the manufacturer's instructions. Briefly, 1 μg of purified RNA was poly-A selected and fragmented with fragmentation enzyme. […] The DNA library was quantitated using Qubit and normalized to 4 nM prior to pooling. […] Library pools were clustered and run on Nextseq500 platform (Illumina Inc.) with single-end reads of 75 bases.
Single-end sequencing reads were demultiplexed using Illumina bcl2fastq, quality checked using FASTQC (bioinformatics.babraham ac uk/projects/fastqc), and aligned to the GRCh37 (release 27) genome using the STAR v2.5.1 aligner, with default settings. The read statistics generated by STAR v2.5.1 was used to ensure that the aligned reads in all samples were over 90% of the total reads. […]
Genes differentially expressed between any two sets of treatment were determined using DESeq2 (bioconductor.org/packages/release/bioc/html/DESeq.html), a statistical tool that employs shrinkage estimates to compute fold changes. […]

**Q.** Which results are given for `CN(C)C/C=C/C(=O)Nc1ccc(C(=O)Nc2cccc(Nc3ncc(Cl)c(-c4c[nH]c5ccccc45)n3)c2)cc1` [THZ1]?
**A.** endogenous MED1-AR complex formation (MED1-AR complex): loss of endogenous MED1-AR complex formation; genes down (RNA-seq) (VCaP cells): 1203; genes up (RNA-seq) (VCaP cells): 1325; genes down (RNA-seq) (DU145 cells): 190; genes up (RNA-seq) (DU145 cells): 191; genes down (RNA-seq) (LNCaP cells): 1695; genes up (RNA-seq) (LNCaP cells): 2612; phosphorylation at Ser5 of RNA Pol II (p-MED1 (p-T1457 MED1); VCaP and LNCaP, dose and time course): reduced phosphorylation at Ser5 of RNA Poll; p-MED1 levels, dose and time course (p-MED1 (p-T1457 MED1); VCaP and LNCaP, standard growth conditions): dose- and time-dependent decrease in p-MED1 levels; p-MED1 levels (p-MED1 (p-T1457 MED1); VCaP, LNCaP, 22RV1, standard culture conditions, 24 h (THZ1 and LDC also with DHT stimulation)): reduced p-MED1 levels; genome-wide DHT-induced differentially expressed AR target genes [1]: completely reversed almost all
